Here are results for two compounds from patent publication US8796302B2 (priority 2004, dated 2014).

One test deals with CD-1 mice given LPS/GalN. The experiment in a line: Serum ALT in LPS/GalN endotoxic shock. Format: in vivo, mouse. Particulars: for serum ALT level: 12 hrs after LPS/GalN. Here is the method: Endotoxic shock was induced in the mice by administering a single intraperitoneal dose of lipopolysaccharide/D-(+/−)Glactosomine (Sigma, St. Louis, Mo.) (LPS/GalN) (20 μg/700 mg/kg) in saline. To test whether DM has protective effects on septic shock, varying concentrations (6.25, 12.5 and 25 mg/kg) of DM were injected into the mice subcutaneously 30 min before, and 2, and 4 hr after the injection of LPS/GalN. Control mice received the same amount of saline. At different time points, the animals were killed, and serum and liver samples were collected.
To examine the therapeutic effects of DM, animals were treated with […] DM at 30 min before LPS/GalN injection, and 30, 60 and 120 min after LPS/GalN administration. Serum ALT was measured to evaluate the therapeutic effects of the DM. Survival rate was evaluated within 12 hours after endotoxin administration.
Serum alanine aminotransferase (ALT) activity was assayed as a marker of hepatocellular death using a commercially available kit (Infinite ALT, Sigma, St. Louis, Mo.). A portion of the liver was fixed in 10% neutral formalin, processed by standard histological techniques, stained with hematoxylin and eosin, and examined for morphological evidence of liver injury.

For a further test, the system named is iROS. In words: iROS production in neuron-glia cultures of PHOX+/+ and PHOX−/− mice. Format: cell-based, mouse. The following applies: DM 10^−14 M. The protocol:
The neuron-glia cultures were treated with vehicle, LPS 10 ng/ml alone, and DM (10^−14 M) 30 min pretreatment followed by LPS treatment as in Example 1. Neurotoxicity was assessed by DA uptake as described in Example 1. TNFα production was measured by ELISA and iROS was determined by DCFDA as in Example 5. Results are expressed as a percentage of the control culture in FIG. 7A, pg/ml in FIG. 7B, and difference from control in FIG. 7C, respectively, and are the mean±S.E.M. of five individual experiments with triplicates in each experiment. *, P<0.05 compared with LPS culture.

Test [1] has as its system dopaminergic neurons in neuron-glia co-cultures. The experiment in a line: [3H]DA uptake in Aβ-treated neuron-glia cultures. Format: cell-based, rat. The following applies: micro- and femtomolar DM, 30 min pretreatment, Aβ 0.75 μM. The protocol:
Neuron-glia co-cultures were prepared and treated with vehicle alone, Aβ 0.75 μM alone, or DM 30 min prior to treatment with Aβ0.75 μM similar to Example 1. Amyloid-β peptide (25-35 and 1-42) was obtained from American Peptide Co., Inc (Sunnyvale, Calif.). Neurotoxicity was assessed by DA uptake as in Example 1. Results are expressed as a percentage of the control cultures and are the mean±S.E.M. of three to eight individual experiments with triplicates in each experiment. ##, P<0.01 compared with the control culture; *, P<0.05 compared with Aβ-treated culture.

Test [2] concerns GalN/LPS-induced liver gene expression. The experiment in a line: Liver gene expression (real-time RT-PCR) after GalN/LPS. Format: in vivo, mouse. The text has this: Total RNA was extracted from liver tissues (n=4 to 5) by Trizol reagent (Sigma, St. Louis, Mo.) and purified with an RNeasy column (Qiagen, Valencia, Calif.). Expression of the selected genes was quantified using real-time RT-PCR analysis that began by reverse transcribing the samples with MuLV reverse transcriptase and oligo-dT primers.
The SYBR green DNA PCR kit (Applied Biosystems, Foster City, Calif.) was used for real-time PCR analysis. The relative differences in expression between groups were expressed using cycle time (Ct) values and the relative differences between groups were expressed as relative increases setting control as 100%. Assuming that the Ct value is reflective of the initial starting copy and that there is 100% efficacy, a difference of one cycle is equivalent to a two-fold difference in starting copy.

The test system of the next test is GDNF. The experiment in a line: GDNF mRNA (real-time PCR) in primary astroglia. Particulars: VPA 0.6 mM. Format: cell-based, rat. Here is the method:
Rat primary astroglias were exposed to 0.6 in M VPA for various times ranging from 6 to 48 hours. Total RNA was extracted from cells by Tri reagent (Sigma) and purified with RNeasy columns (Qiagen, Valencia, Calif.). Expression of the selected genes was quantified using real-time RT-PCR analysis. Briefly, total RNA was reverse transcribed with MuLV reverse transcriptase and oligo-dT primers. The forward and reverse primers for selected genes were designed using Primer Express software. The SYBR green DNA PCR kit (Applied Biosystems, Foster City, Calif.) was used for real-time PCR analysis. The relative differences in expression between groups were expressed using cycle time (Ct) values and the relative differences between groups were expressed as relative increases setting the control as 100%. Assuming that the Ct value is reflective of the initial starting copy and that there is 100% efficacy, a difference of one cycle is equivalent to a two-fold difference in the starting copy.
(In qPCR the cycle at which signal appears reflects the starting amount.)

Setting [3] is: ratio to control, 12 hr, DM 12.5 mg/kg sc x2.

For `COc1ccc2c(c1)[C@@]13CCCC[C@H]1[C@@H](C2)N(C)CC3` [DM, d-3-methoxy-N-methylmorphinan], the “serum ALT level” value in the test on CD-1 mice given LPS/GalN (DM 12.5 mg/kg) is “about 25 % of LPS/GalN group”. The “serum ALT level” value in the test on CD-1 mice given LPS/GalN (DM 25 mg/kg) is listed as “about 25 % of LPS/GalN group”. Besides, the “time-dependent reduction of serum ALT level” value in the test with CD-1 mice given LPS/GalN (DM 30 min pre-treatment and 30, 60, 120 min post-treatments) was “the later the DM treatment, the less protective”. Further, in the test with iROS (PHOX+/+ mice), the “LPS-induced iROS production” value was “significantly inhibited iROS production”. For the same compound, the “LPS-induced iROS production” value with iROS (PHOX−/− mice) is recorded as “failed to show any effect”. Moreover, the “Aβ-induced neurotoxicity (DA uptake)” value in test [1] is recorded as “neuroprotective effect”. Moreover, in test [2] (12 hr after GalN/LPS, DM 12.5 mg/kg sc x2, controls 1.0, LPS/GalN alone 153.3 ± 6.4), the “MIP-2 expression, LPS + DM” value is on record as 39.0 ± 2.1 fold. The “GADD153 expression, LPS + DM” value in test [2] (12 hr, DM 12.5 mg/kg sc x2, controls 1.0, LPS/GalN alone 7.4 ± 0.3) amounted to 2.7 ± 1.3 fold. The “ICAM-1 expression, LPS + DM” value in test [2] (12 hr, DM 12.5 mg/kg sc x2, controls 1.0, LPS/GalN alone 8.45 ± 1.3) turned out to be 5.05 ± 2.7 fold. The “mKC expression, LPS + DM” value in test [2] (12 hr, DM 12.5 mg/kg sc x2, controls 1.0, LPS/GalN alone 13.7 ± 2.9) is 5.8 ± 1.6 fold. Moreover, the “GADD45 expression, LPS + DM” value in test [2] (12 hr, DM 12.5 mg/kg sc x2, controls 1.0, LPS/GalN alone 24.6 ± 12.4) is given as 5.3 ± 2.4 fold. Further, the “IL-10 expression, LPS + DM” value in test [2] (12 hr, DM 12.5 mg/kg sc x2, controls 1.0, LPS/GalN alone 25.3 ± 2.9) is given as 15.0 ± 3.3 fold. The “c-jun/AP-1 expression, LPS + DM” value in test [2] (12 hr, DM 12.5 mg/kg sc x2, controls 1.0, LPS/GalN alone 28.0 ± 7.5) turned out to be 9.1 ± 0.8 fold. Moreover, the “c-myc expression, LPS + DM” value in test [2] (12 hr, DM 12.5 mg/kg sc x2, controls 1.0, LPS/GalN alone 45.4 ± 3.6) turned out to be 18.4 ± 2.1 fold. Also, in test [2] (12 hr, DM 12.5 mg/kg sc x2, controls 1.0, LPS/GalN alone 94.2 ± 2.5), the “Thrombospondin-1 expression, LPS + DM” value was 56.0 ± 1.57 fold. Also, the “IL-6 expression, LPS + DM” value in test [2] (12 hr, DM 12.5 mg/kg sc x2, controls 1.0, LPS/GalN alone 153.4 ± 13.3) was 43.6 ± 6.3 fold. In test [2] (setting [3]), the “GADD45, LPS + DM/Cont” value came to 5.3 fold; the “GADD153, LPS + DM/Cont” value is recorded as 2.7 fold; the “ICAM-1, LPS + DM/Cont” value amounted to 5.05 fold; the “IL-6, LPS + DM/Cont” value is given as 43.6 fold. In test [2] (setting [3]), the “IL-10, LPS + DM/Cont” value is on record as 15 fold; the “MIP-2, LPS + DM/Cont” value is 39.0 fold; the “Thrombospondin-1, LPS + DM/Cont” value is given as 56.0 fold; the “c-jun/AP-1, LPS + DM/Cont” value turned out to be 9.1 fold. Moreover, in test [2] (setting [3]), the “c-myc, LPS + DM/Cont” value came out at 18.4 fold and the “mKC, LPS + DM/Cont” value was determined as 5.8 fold.

`CCCC(CCC)C(=O)O` [VPA, Valproic acid]: the “GDNF mRNA levels” value in the test on GDNF (12 hours, control as 100%) is listed as “about 180%”; in the test with GDNF (24 hours, control as 100%), roughly 265%; with GDNF (48 hours), “back to the control value”.
